Experimental data reported in patent publication US7462613B2, “Pyridazinone derivatives as pharmaceuticals and pharmaceutical compositions containing them” (SANOFI-AVENTIS Deutschland GmbH, priority 2002, dated 2008).
pIC50: −log10 of the molar value.

Biological target: CDK2/Cyclin E kinase (Homo sapiens, UniProt P24941)
Assay: CDK2/Cyclin E Flashplate Assay: 96-Well Format
Type: biochemical
Settings: streptavidin-coated flashplate; biotinylated-Rb peptide substrate 10 μM; 33P-ATP/ATP 1 μM; CDK2/Cyclin E 20 nM; 30 minutes at 30° C.; 1% DMSO
Experimental: Functional Measurements for Determination of IC50-Values
CDK2/Cyclin E Flashplate Assay: 96-Well Format
A 96-well streptavidin-coated flashplate was used to assay potency of compounds according formula (I) against CDK2/Cyclin E kinase. To carry out the assay, biotinylated-Rb peptide substrate (Biotin-[…]-OH) was solubilized at 1 mM in kinase buffer (Hepes 50 mM, NaCl 1 mM, MgCl2 5 mM pH 7.5) as a stock solution conserved at −20° C. in aliquots of 110 μl. The day of the experiment, an aliquot of this solution was thawed and diluted to 14.3 μM in kinase buffer, containing 1 mM dithiothreitol (DTT) added in the buffer at the same time.
70 μl of this solution was added in each well of the flashplate in order to achieve a final concentration of 10 μM (100 μl reactionnal volume). Serial dilutions of inhibitors were prepared in DMSO from 10 mM stock solutions in order to achieve 1000 μM, 333.3 μM, 111.1 μM, 37.03 μM, 12.35 μM, 4.11 μM and 1.37 μM and all were rediluted in kinase buffer+DTT in order to achieve 100 μM, 33.3 μM, 11.1 μM, 3.7 μM, 1.24 μM, 0.41 μM and 0.14 μM in DMSO 10% buffer (vol/vol). 10 μl of each, of these solutions (or 10 μl of buffer+DTT for controls) were transferred to the testplate wells in order to achieve 10 μM, 3.33 μM, 1.11 μM, 0.37 μM, 0.12 μM, 0.04. μM and 0.01 μM as final concentrations, 1% DMSO (vol/vol). In each well, 10 μl of a solution of a mix of ^33PyATP/ATP were added in order to achieve 1 μM final concentration and a total of 1 μCi. The kinase reaction was initiated by addition of 10 μl of a solution at 200 nM of CDK2/Cyclin E in kinase buffer+DTT (or buffer+DTT for blanks) in order to achieve 20 nM final concentration. After addition of each reagent, the test-plate was shakened. The plates were incubated 30 minutes at 30° C. with a shaking at 650 rpm. At the end of the incubation, the plates were washed 3 times with 300 μl of PBS (without calcium and magnesium) per well. The incorporation of ^33P to the peptide was measured by scintillation counting.

Compared with O=C(NCc1ccc(Cl)cc1)c1cc(-c2ccc(O)c(Cl)c2)n[nH]c1=O [Example 180, 6-(3-Chloro-4-hydroxy-phenyl)-3-oxo-2,3-dihydro-pyridazine-4-carboxylic acid 4-chloro-benzylamide], O=C(NCc1ccc(Cl)cc1)c1cc(-c2ccc(O)c(F)c2)n[nH]c1=O [Example 183, 6-(3-Fluoro-4-hydroxy-phenyl)-3-oxo-2,3-dihydro-pyridazine-4-carboxylic acid 4-chloro-benzylamide] is 0.23 log units higher in pIC50: 6.76 for the first, 6.99 for the second.

Compared with O=C(NCc1ccc(Cl)cc1)c1cc(-c2cc(F)c(O)c(F)c2)n[nH]c1=O [Example 182, 6-(3,5-Difluoro-4-hydroxy-phenyl)-3-oxo-2,3-dihydro-pyridazine-4-carboxylic acid 4-chloro-benzylamide], CNc1cc(-c2cc(C(=O)NCc3ccc(Cl)cc3)c(=O)[nH]n2)ccn1 [Example 206, 6-(2-Methylamino-pyridin-4-yl)-3-oxo-2,3-dihydro-pyridazine-4-carboxylicacid 4-chloro-benzylamide] is 0.47 log units higher in pIC50: 6.33 for the first, 6.80 for the second. The second is the more potent here.

CCNc1nccc(-c2cc(C(=O)NCc3ccc(Cl)cc3)c(=O)[nH]n2)n1 [Example 190, 6-(2-Ethylamino-pyrimidin-4-yl)-3-oxo-2,3-dihydro-pyridazine-4-carboxylic acid 4-chloro-benzylamide] and CCCCNc1nccc(-c2cc(C(=O)NCc3cccnc3)c(=O)[nH]n2)n1 [Example 219, 6-(2-Butylamino-pyrimidin-4-yl)-3-oxo-2,3-dihydro-pyridazine-4-carboxylic acid (pyridin-3-ylmethyl)-amide] are within 0.2 log units of each other in pIC50: 7.74 for the first, 7.82 for the second.

Compared with COC(=O)c1ccc(CNC(=O)c2cc(-c3ccncc3)n[nH]c2=O)cc1 [Example 217, 4-{[(3-Oxo-6-pyridin-4-yl-2,3-dihydro-pyridazine-4-carbonyl)-amino]-methyl}-benzoic acid methylester; compound withtrifluoro-acetic acid], COc1cc(-c2cc(C(=O)NCc3ccc(C(=O)O)cc3)c(=O)[nH]n2)ccc1O [Example 225, 4-({[6-(4-Hydroxy-3-methoxy-phenyl)-3-oxo-2,3-dihydro-pyridazine-4-carbonyl]-amino}-methyl)-benzoic acid] is 0.79 log units lower in pIC50: 7.62 for the first, 6.83 for the second.

First: CCCCNc1nccc(-c2cc(C(=O)NCCCN3CCN(C)CC3)c(=O)[nH]n2)n1 [Example 218, 6-(2-Butylamino-pyrimidin-4-yl)-3-oxo-2,3-dihydro-pyridazine-4-carboxylic acid [3-(4-methyl-piperazin-1-yl)-propyl]-amide; compoundwith trifluoro-acetic acid]
Second: CCCCNc1nccc(-c2cc(C(=O)NCCCc3cccnc3)c(=O)[nH]n2)n1 [Example 220, 6-(2-Butylamino-pyrimidin-4-yl)-3-oxo-2,3-dihydro-pyridazine-4-carboxylic acid (3-pyridin-3-yl-propyl)-amide]
The pIC50 of the first is 0.95 log units lower: 6.97 for the first, 7.92 for the second. The second is the more potent here.
